For three compounds, IC50 results are on record in ChEMBL document CHEMBL1150400, “Lycoparins A-C, new alkaloids from Lycopodium casuarinoides inhibiting acetylcholinesterase” (Bioorg Med Chem, 2008).

The target of the assay is T1, Acetylcholinesterase (Bos taurus, UniProt P23795).
T1 sequence (P23795 whole entry): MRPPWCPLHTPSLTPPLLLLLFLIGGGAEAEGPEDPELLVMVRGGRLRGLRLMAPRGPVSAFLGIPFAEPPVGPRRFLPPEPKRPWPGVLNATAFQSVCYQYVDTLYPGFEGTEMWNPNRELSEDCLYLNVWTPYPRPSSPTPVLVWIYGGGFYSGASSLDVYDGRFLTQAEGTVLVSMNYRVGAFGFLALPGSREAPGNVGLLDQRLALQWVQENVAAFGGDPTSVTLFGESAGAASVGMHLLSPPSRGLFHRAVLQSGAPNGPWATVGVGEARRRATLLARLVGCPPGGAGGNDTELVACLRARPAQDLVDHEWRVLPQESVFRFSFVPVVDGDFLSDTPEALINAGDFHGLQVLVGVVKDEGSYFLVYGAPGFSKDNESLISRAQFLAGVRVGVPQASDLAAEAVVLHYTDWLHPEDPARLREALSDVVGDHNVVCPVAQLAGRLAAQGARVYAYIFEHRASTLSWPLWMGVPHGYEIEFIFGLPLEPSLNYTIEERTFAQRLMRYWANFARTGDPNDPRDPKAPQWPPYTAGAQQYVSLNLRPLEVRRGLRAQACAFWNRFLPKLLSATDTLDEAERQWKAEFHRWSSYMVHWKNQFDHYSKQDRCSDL
Briefly: Inhibition of acetylcholinesterase from bovine erythrocyte.

For the compound `C=C[C@@H]1[C@H]2C=C(C(=O)O)C[C@]1(N(C)C)c1ccc(=O)[nH]c1C2` [LYCOPARIN A], the IC50 is greater than 200 µM.
`C=C[C@@H]1[C@H]2C=C(C(=O)O)C[C@]1(NC)c1ccc(=O)[nH]c1C2` [LYCOPARIN B] displayed an IC50 greater than 200 µM.
As for `C=C[C@@H]1[C@H]2C=C(CO)C[C@]1(N)c1ccc(=O)[nH]c1C2` [LYCOPARIN C], it took 25 µM to reach half-maximal inhibition (IC50).

What is called IC50 is the concentration at which inhibition is half-maximal. A lower IC50 goes with greater potency in that assay.
